Measured values reported in PubChem BioAssay AID1963854 (Molecular Pharmacology Branch, DTP, NCI, 2024).

Test system: 186277-243-T-J2-PDC complex spheroid viability
Experiment: Anticancer human tumor 186277-243-T-J2-PDC patient-derived colon adenocarcinoma cell line growth inhibition [POLQ]
Settings: for IC50: curve of first compound; for viability, T/C: stronger effect = lower value
How it was run: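 Three-cell-type spheroids modelling solid tumor plus stroma served as the readout system; POL inhibitors were tested individually and in combination, concentration ranges set by clinical Cmax where known.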

[1] = second compound 0.0316 µM, first compound 0.0316 µM
[2] = second compound 0.0316 µM, first compound 0.1 µM
[3] = second compound 0.0316 µM, first compound 0.316 µM
[4] = second compound 0.0316 µM, first compound 1 µM
[5] = second compound 0.0316 µM, first compound 3.16 µM
[6] = second compound 0.0316 µM, first compound 10 µM
[7] = second compound 0.1 µM, first compound 0.0316 µM
[8] = second compound 0.1 µM, first compound 0.1 µM
[9] = second compound 0.1 µM, first compound 0.316 µM
[10] = second compound 0.1 µM, first compound 1 µM
[11] = second compound 0.1 µM, first compound 3.16 µM
[12] = second compound 0.1 µM, first compound 10 µM
[13] = second compound 0.316 µM, first compound 0.0316 µM
[14] = second compound 0.316 µM, first compound 0.1 µM
[15] = second compound 0.316 µM, first compound 0.316 µM
[16] = second compound 0.316 µM, first compound 1 µM
[17] = second compound 0.316 µM, first compound 3.16 µM
[18] = second compound 0.316 µM, first compound 10 µM
[19] = second compound 1 µM, first compound 0.0316 µM
[20] = second compound 1 µM, first compound 0.1 µM
[21] = second compound 1 µM, first compound 0.316 µM
[22] = second compound 1 µM, first compound 1 µM
[23] = second compound 1 µM, first compound 3.16 µM
[24] = second compound 1 µM, first compound 10 µM
[25] = second compound 3.16 µM, first compound 0.0316 µM
[26] = second compound 3.16 µM, first compound 0.1 µM
[27] = second compound 3.16 µM, first compound 0.316 µM
[28] = second compound 3.16 µM, first compound 1 µM
[29] = second compound 3.16 µM, first compound 3.16 µM
[30] = second compound 3.16 µM, first compound 10 µM
[31] = second compound 10 µM, first compound 0.0316 µM
[32] = second compound 10 µM, first compound 0.1 µM
[33] = second compound 10 µM, first compound 0.316 µM
[34] = second compound 10 µM, first compound 1 µM
[35] = second compound 10 µM, first compound 3.16 µM
[36] = second compound 10 µM, first compound 10 µM
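Note: spheroids exposed to compounds for seven days.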
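Throughout, for viability, T/C: 100% = DMSO vehicle control viability.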

Molecule `CC(C)n1c(=O)n(C)c2cnc3cc(F)c(-c4ccc(OCCCN5CCCCC5)nc4)cc3c21` + COC1C(OC(N)=O)C(O)C(Oc2ccc3c(O)c(NC(=O)c4ccc(O)c(CC=C(C)C)c4)c(=O)oc3c2C)OC1(C)C has an IC50 (second compound 0.0316 µM) of over 10 µM, an IC50 (second compound 0.1 µM) of over 10 µM and an IC50 (second compound 0.316 µM) of over 10 µM. For the same molecule, the IC50 (second compound 1 µM) was over 10 µM, the IC50 (second compound 3.16 µM) was over 10 µM and the IC50 (second compound 10 µM) was over 10 µM. The viability, T/C [1] was 104%, the viability, T/C [2] was 97.4% and the viability, T/C [3] was 98.1%. It also gave a viability, T/C [4] of 93.2%, a viability, T/C [5] of 94.3% and a viability, T/C [6] of 116%. The viability, T/C [7] was 111%, the viability, T/C [8] was 87.2% and the viability, T/C [9] was 103%. It also gave a viability, T/C [10] of 101%, a viability, T/C [11] of 107% and a viability, T/C [12] of 92.2%. It also gave a viability, T/C [13] of 99.1%, a viability, T/C [14] of 98.3% and a viability, T/C [15] of 96.1%. For the same molecule, the viability, T/C [16] was 97.9%, the viability, T/C [17] was 114% and the viability, T/C [18] was 108%. The viability, T/C [19] was 110%, the viability, T/C [20] was 93.7% and the viability, T/C [21] was 86.6%. The viability, T/C [22] was 107%, the viability, T/C [23] was 101% and the viability, T/C [24] was 101%. For the same molecule, the viability, T/C [25] was 98.2%, the viability, T/C [26] was 95.2% and the viability, T/C [27] was 105%. It also gave a viability, T/C [28] of 106%, a viability, T/C [29] of 92.5% and a viability, T/C [30] of 102%. It also gave a viability, T/C [31] of 102%, a viability, T/C [32] of 109% and a viability, T/C [33] of 115%. The viability, T/C [34] was 115%, the viability, T/C [35] was 108% and the viability, T/C [36] was 89.8%.
Molecule `O=c1[nH]cc(F)c(=O)[nH]1` + Nc1ccc(C#CCN(C(=O)Cc2ncc(C(F)(F)F)cc2C(F)(F)F)c2ccc(F)cc2)nn1 has an IC50 (second compound 0.0316 µM) of over 10 µM, an IC50 (second compound 0.1 µM) of over 10 µM and an IC50 (second compound 0.316 µM) of over 10 µM. It also gave an IC50 (second compound 1 µM) of over 10 µM, an IC50 (second compound 3.16 µM) of over 10 µM and an IC50 (second compound 10 µM) of over 10 µM. For the same molecule, the viability, T/C [1] was 102%, the viability, T/C [2] was 94.3% and the viability, T/C [3] was 103%. It also gave a viability, T/C [4] of 102%, a viability, T/C [5] of 97.4% and a viability, T/C [6] of 64.8%. It also gave a viability, T/C [7] of 97.7%, a viability, T/C [8] of 112% and a viability, T/C [9] of 97.4%. The viability, T/C [10] was 107%, the viability, T/C [11] was 103% and the viability, T/C [12] was 67.3%. It also gave a viability, T/C [13] of 95.9%, a viability, T/C [14] of 103% and a viability, T/C [15] of 101%. The viability, T/C [16] was 88.3%, the viability, T/C [17] was 97.3% and the viability, T/C [18] was 65.6%. It also gave a viability, T/C [19] of 98.8%, a viability, T/C [20] of 92.6% and a viability, T/C [21] of 109%. For the same molecule, the viability, T/C [22] was 87.6%, the viability, T/C [23] was 107% and the viability, T/C [24] was 63.1%. It also gave a viability, T/C [25] of 103%, a viability, T/C [26] of 96.5% and a viability, T/C [27] of 109%. For the same molecule, the viability, T/C [28] was 106%, the viability, T/C [29] was 104% and the viability, T/C [30] was 61%. For the same molecule, the viability, T/C [31] was 109%, the viability, T/C [32] was 106% and the viability, T/C [33] was 101%. It also gave a viability, T/C [34] of 102%, a viability, T/C [35] of 90.6% and a viability, T/C [36] of 52.4%.
Work on `O=c1[nH]cc(F)c(=O)[nH]1` + COC1C(OC(N)=O)C(O)C(Oc2ccc3c(O)c(NC(=O)c4ccc(O)c(CC=C(C)C)c4)c(=O)oc3c2C)OC1(C)C yielded an IC50 (second compound 0.0316 µM) of over 10 µM, an IC50 (second compound 0.1 µM) of over 10 µM and an IC50 (second compound 0.316 µM) of over 10 µM. The IC50 (second compound 1 µM) was 9.82 µM, the IC50 (second compound 3.16 µM) was 9.69 µM and the IC50 (second compound 10 µM) was 9.8 µM. The viability, T/C [1] was 88%, the viability, T/C [2] was 100% and the viability, T/C [3] was 104%. It also gave a viability, T/C [4] of 106%, a viability, T/C [5] of 70% and a viability, T/C [6] of 49.9%. For the same molecule, the viability, T/C [7] was 92%, the viability, T/C [8] was 105% and the viability, T/C [9] was 104%. The viability, T/C [10] was 100%, the viability, T/C [11] was 70% and the viability, T/C [12] was 52%. For the same molecule, the viability, T/C [13] was 104%, the viability, T/C [14] was 108% and the viability, T/C [15] was 114%. The viability, T/C [16] was 119%, the viability, T/C [17] was 69.3% and the viability, T/C [18] was 49.6%. For the same molecule, the viability, T/C [19] was 109%, the viability, T/C [20] was 111% and the viability, T/C [21] was 86.2%. The viability, T/C [22] was 102%, the viability, T/C [23] was 69% and the viability, T/C [24] was 49.8%. It also gave a viability, T/C [25] of 102%, a viability, T/C [26] of 115% and a viability, T/C [27] of 109%. For the same molecule, the viability, T/C [28] was 107%, the viability, T/C [29] was 66.9% and the viability, T/C [30] was 49.1%. For the same molecule, the viability, T/C [31] was 117%, the viability, T/C [32] was 97.2% and the viability, T/C [33] was 108%. It also gave a viability, T/C [34] of 105%, a viability, T/C [35] of 73.5% and a viability, T/C [36] of 49.6%.
Work on `CCc1cc2c(N3CCc4c(cc(Cn5ccnc5)cc4-c4cn(C)nc4C(F)(F)F)C3=O)cc(C)nc2c(OC)n1` + Nc1ccc(C#CCN(C(=O)Cc2ncc(C(F)(F)F)cc2C(F)(F)F)c2ccc(F)cc2)nn1 yielded an IC50 (second compound 0.0316 µM) of over 10 µM, an IC50 (second compound 0.1 µM) of over 10 µM and an IC50 (second compound 0.316 µM) of over 10 µM. The IC50 (second compound 1 µM) was over 10 µM, the IC50 (second compound 3.16 µM) was over 10 µM and the IC50 (second compound 10 µM) was over 10 µM. It also gave a viability, T/C [1] of 97%, a viability, T/C [2] of 104% and a viability, T/C [3] of 96%. It also gave a viability, T/C [4] of 117%, a viability, T/C [5] of 119% and a viability, T/C [6] of 95.8%. For the same molecule, the viability, T/C [7] was 95.3%, the viability, T/C [8] was 89.4% and the viability, T/C [9] was 96.9%. It also gave a viability, T/C [10] of 108%, a viability, T/C [11] of 124% and a viability, T/C [12] of 97.2%. The viability, T/C [13] was 107%, the viability, T/C [14] was 89.2% and the viability, T/C [15] was 96.6%. For the same molecule, the viability, T/C [16] was 101%, the viability, T/C [17] was 89.7% and the viability, T/C [18] was 86%. It also gave a viability, T/C [19] of 95.1%, a viability, T/C [20] of 106% and a viability, T/C [21] of 101%. The viability, T/C [22] was 98.7%, the viability, T/C [23] was 114% and the viability, T/C [24] was 90.6%. For the same molecule, the viability, T/C [25] was 104%, the viability, T/C [26] was 88.4% and the viability, T/C [27] was 91.8%. For the same molecule, the viability, T/C [28] was 87.6%, the viability, T/C [29] was 109% and the viability, T/C [30] was 87.3%. The viability, T/C [31] was 102%, the viability, T/C [32] was 95.5% and the viability, T/C [33] was 94.1%. It also gave a viability, T/C [34] of 106%, a viability, T/C [35] of 95.6% and a viability, T/C [36] of 76.2%.
